Test results from patent US20100093748A1, “SUBSTITUTED PIPERIDINES HAVING PROTEIN KINASE INHIBITING ACTIVITY” (ASTEX THERAPEUTICS LIMITED, priority 2006, published 2010).

System: phosphorylation of Serine-9 residue in Glycogen Synthase Kinase-3beta as surrogate marker of cellular PKB (Akt) activity
Test: In vitro MDA-MB-468 human breast adenocarcinoma GSK-3 phosphorylation assay
Type: cell-based
Conditions: MDA-MB-468 cells, 2 hours compound incubation, mean IC50, read-out: Cell pGSK3b IC50
From the text: This assay determines the ability of test compounds to inhibit phosphorylation of Serine-9 residue in Glycogen Synthase Kinase-3beta (GSK-313) as a surrogate marker of cellular PKB (Akt) activity, as assessed using Acumen Explorer Fluorescent Plate-Reader technology. A MDA-MB-468 human breast adenocarcinoma cell line (LGC Promochem, Teddington, Middlesex, UK, Catalogue No. HTB-132) was routinely maintained in Dulbecco's modified Eagle's growth medium (DMEM; Invitrogen Limited, Paisley, UK Catalogue No. 11966-025) containing 10% heat-inactivated foetal calf serum (FCS; Sigma, Poole, Dorset, UK, Catalogue No. F0392) and 1% L-glutamine (Gibco, Catalogue No. 25030-024) at 37° C. with 5% CO2 up to a confluency of 70-90%.
For the phosphorylation assay, the cells were detached from the culture flask using Trypsin-EDTA (Invitrogen Limited, Catalogue No. 25300-062) and seeded into the wells of a black transparent-bottom Corning Costar Polystyrene 96 well plate (Fisher Scientific UK, Loughborough, Leicestershire, UK; Catalogue No. 3904 and DPS-130-020K) at a density of 5000 cells per well in 100 μl of complete growth media. The cells were incubated overnight at 37° C. with 5% CO2 to allow them to adhere.
On day 2, the cells were treated with test compounds and incubated for 2 hours at 37° C. with 5% CO2. Test compounds were prepared as 10mM stock solutions in DMSO and dosed directly to required concentration into test wells using non-contact (acoustic dispensing of multiple 2.5 nl droplets directly into assay wells) ECHO dosing technology (Labcyte Inc Sunnyvale, Calif., USA). Each plate contained control wells without test compound.
20 μl of fixing buffer (Phosphate Buffered Saline (PBS) containing 10% formaldehyde; Sigma; Catalogue No. F1635) was then added to each well to give a final well concentration 1.6%. Plates were then incubated for 30 minutes at room temperature prior to the fixative being removed. Each well was washed once with 250 μl of PBS and then 50 μl PBS added to each well. PBS was then aspirated and cells permeabilised and blocked by incubating each well with 50 μl of permeabilisation/blocking buffer (PBS containing 0.5% Tween 20 (Sigma; Catalogue No. P5927) and 5% Marvel Milk Powder (Andrews Pharmacy Ltd, Macclesfield, Cheshire, UK; Catalogue No. APC100199)) for 1 hour at room temperature prior to staining.
Following removal of Perm/Block buffer, 50 μl of primary anti-phospho-GSK-3β antibody (Cell Signalling Technology (New England Biolabs (Uk) Ltd.), Hitchin, Hertfordshire, UK; Catalogue No.9336 diluted 1:400 in Blocking buffer (PBS containing 5% Marvel and 0.05% Tween/Polysorbate 20) was added to each well and incubated overnight at 4° C.
Each well was washed three times in 250 μl of wash buffer (PBS containing 0.05% polysorbate 20), and cells incubated for 1 hour at room temperature with 50 μl of secondary fluorescently-labelled anti-rabbit Alexa Fluor 488 antibody (Molecular Probes, Invitrogen Limited, Catalogue No. A11008) diluted 1:750 in blocking buffer. Plates were washed three times in 250 μl of wash buffer and stored containing 50 μl of PBS at 4° C. until required.
Plates were analysed using an Acumen Explorer Plate-reader to quantify level of fluorescent signal that represents quantity of phosphorylated-GSK-313.
IC50 calculation—IC50 is the concentration of compound required to give 50% effect over the range of activity affected by the compound, between maximum (no compound) and minimum (excess level of compound) response control data. IC50 values were determined by fitting background corrected, dose response assay data to a 4 parameter logistic curve fit equation model with the minimum response set to zero. This was done using an in-house developed algorithm within the Origin graphing software package (OriginLab Corporation, Northampton, Mass., USA). […]

Question: With CC(C)c1ccc2[nH]c(C3(N)CCN(c4ncnc5[nH]ccc45)CC3)nc2c1 [Example 62, 4(5-isopropyl-1H-benzo[d]imidazol-2-yl)-1-(7H-pyrrolo[2,3-d]pyrimidin-4-yl)piperidin-4-amine] as the compound, how does the IC50 read?
Answer: 580 nM

Question: With Cn1c(C2(N)CCN(c3ncnc4[nH]ccc34)CC2)nc2ccccc21 [Example 54, 4-(1-methylbenzimidazol-2-yl)-1-(7H-pyrrolo[2,3-d]pyrimidin-4-yl)piperidin-4-amine] as the compound, how does the IC50 read?
Answer: > 2600 nM

Question: How did the IC50 turn out when NCC1(c2nc3ccccc3[nH]2)CCN(c2ncnc3[nH]ccc23)CC1 [Example 34D, C-[4-(1H-Benzoimidazol-2-yl)-1-(7H-pyrrolo[2,3-d]pyrimidin-4-yl)-piperidin-4-yl]-methylamine] was run?
Answer: 86 nM

Question: Which IC50 does the source give for NC1(c2nc3c(-c4ccoc4)cccc3[nH]2)CCN(c2ncnc3[nH]ccc23)CC1 [Example 88, 4-[7-(3-furyl)-1H-benzimidazol-2-yl]-1-(7H-pyrrolo[2,3-d]pyrimidin-4-yl)piperidin-4-amine] here?
Answer: 52 nM

Question: With NC1(c2nc3c(O)cccc3[nH]2)CCN(c2ncnc3[nH]ccc23)CC1 [Example 11, 2-[4-Amino-1-(7H-pyrrolo[2,3-d]pyrimidin-4-yl)-piperidin-4-yl]-1H-benzoimidazol-4-ol] as the compound, how does the IC50 read?
Answer: 160 nM

Question: Cn1cc(-c2cccc3[nH]c(C4(CN)CCN(c5ncnc6[nH]ccc56)CC4)nc23)cn1 [Example 100] was tested. Which IC50 did it give?
Answer: 14 nM

Question: For CS(=O)(=O)c1cccc(-c2cccc3[nH]c(C4(N)CCN(c5ncnc6[nH]ccc56)CC4)nc23)c1 [Example 95, 4-[4-(3-methylsulfonylphenyl)-1H-benzimidazol-2-yl]-1-(7H-pyrrolo[3,2-e]pyrimidin-4-yl)piperidin-4-amine], which IC50 is on record?
Answer: 49 nM

Question: With NC1(c2nc3c(-c4cn[nH]c4)cccc3[nH]2)CCN(c2ncnc3[nH]ccc23)CC1 [Example 93, 4-[4-(1H-pyrazol-4-yl)-1H-benzimidazol-2-yl]-1-(7H-pyrrolo[3,2-e]pyrimidin-4-yl)piperidin-4-amine] as the compound, how does the IC50 read?
Answer: 250 nM

Question: How did the IC50 turn out when NC1(c2nc3cc(OC(F)(F)F)ccc3[nH]2)CCN(c2ncnc3[nH]ccc23)CC1 [Example 61, 1-(7H-Pyrrolo[2,3-d]pyrimidin-4-yl)-4-(5-(trifluoromethoxy)-1H-benzo[d]imidazol-2-yl)piperidin-4-amine] was run?
Answer: 620 nM

Question: How did the IC50 turn out when NC1(c2nc3cc(-c4cccnc4)ccc3[nH]2)CCN(c2ncnc3[nH]ccc23)CC1 [Example 77, 4-(5-pyridin-3-yl-1H-benzimidazol-2-yl)-1-(7H-pyrrolo[2,3-d]pyrimidin-4-yl)piperidin-4-amine] was run?
Answer: 12000 nM

Question: COc1ccc(-c2ccc3[nH]c(C4(N)CCN(c5ncnc6[nH]ccc56)CC4)nc3c2)cc1 [Example 73, 4-[5-(4-methoxyphenyl)-1H-benzimidazol-2-yl]-1-(7H-pyrrolo[2,3-d]pyrimidin-4-yl)piperidin-4-amine] was tested. Which IC50 did it give?
Answer: 3300 nM

Question: With NC1(c2nc3ccc(Cl)cc3[nH]2)CCN(c2ncnc3[nH]ccc23)CC1 [Example 13, 4-(6-chloro-1H-benzoimidazol-2-yl)-1-(7H-pyrrolo[2,3-d]pyrimidin-4-yl)-piperidin-4-ylamine] as the compound, how does the IC50 read?
Answer: 660 nM

Question: Which IC50 does the source give for NC1(c2nc3cc(Cl)c(Cl)cc3[nH]2)CCN(c2ncnc3[nH]ccc23)CC1 [Example 53, 4-(5,6-Dichloro-1H-benzoimidazol-2-yl)-1-(7H-pyrrolo[2,3-d]pyrimidin-4-yl)-piperidin-4-ylamine] here?
Answer: 1800 nM

Question: With NC1(c2nc3cc(-c4ccncc4)ccc3[nH]2)CCN(c2ncnc3[nH]ccc23)CC1 [Example 70, 4-(5-pyridin-4-yl-1H-benzimidazol-2-yl)-1-(7H-pyrrolo[2,3-d]pyrimidin-4-yl)piperidin-4-amine] as the compound, how does the IC50 read?
Answer: 1600 nM

Question: NCC1(c2nc3cc(Cl)ccc3[nH]2)CCN(c2ncnc3[nH]ccc23)CC1 [Example 67B, (4-(5-chloro-1H-benzo[d]imidazol-2-yl)-1-(7H-pyrrolo[2,3-d]pyrimidin-4-yl)piperidin-4-yl)methanamine] was tested. Which IC50 did it give?
Answer: 62 nM

Question: CN1CCN(c2ccc3[nH]c(C4(N)CCN(c5ncnc6[nH]ccc56)CC4)nc3c2)CC1 [Example 60, 4-(5-(4-methylpiperazin-1-yl)-1H-benzo[d]imidazol-2-yl)-1-(7H-pyrrlo[2,3-d]pyrimidin-4-yl)piperidin-4-amine] was tested. Which IC50 did it give?
Answer: 8600 nM

Question: With CS(=O)(=O)Cc1cccc(-c2cccc3[nH]c(C4(N)CCN(c5ncnc6[nH]ccc56)CC4)nc23)c1 [Example 115, 4-(4-(3-(methylsulfonylmethyl)phenyl)-1H-benzo[d]imidazol-2-yl)-1-(7H-pyrrolo[2,3-d]pyrimidin-4-yl)piperidin-4-amine] as the compound, how does the IC50 read?
Answer: 270 nM

Question: For COc1ccc(-c2cccc3[nH]c(C4(N)CCN(c5ncnc6[nH]ccc56)CC4)nc23)cc1 [Example 82, -[4-(4-methoxyphenyl)-1H-benzimidazol-2-yl]-1-(7H-pyrrolo[2,3-d]pyrimidin-4-yl)piperidin-4-amine], which IC50 is on record?
Answer: 120 nM

Question: For NC1(c2nc3c(-c4ccccc4)cccc3[nH]2)CCN(c2ncnc3[nH]cnc23)CC1 [Example 103, 4-(4-Phenyl-1H-benzimidazol-2-yl)-1-(9H-purin-6-yl)piperidin-4-amine], which IC50 is on record?
Answer: 33 nM

Question: Which IC50 does the source give for Cn1cc(-c2ccc3[nH]c(C4(N)CCN(c5ncnc6[nH]ccc56)CC4)nc3c2)cn1 [Example 74, 4-[5-(1-methylpyrazol-4-yl)-1H-benzimidazol-2-yl]-1-(7H-pyrrolo[2,3-d]pyrimidin-4-yl)piperidin-4-amine] here?
Answer: 3700 nM

Question: With COc1cccc(-c2cccc3[nH]c(C4(N)CCN(c5ncnc6[nH]ccc56)CC4)nc23)c1 [Example 81, -[4-(3-methoxyphenyl)-1H-benzimidazol-2-yl]-1-(7H-pyrrolo[2,3-d]pyrimidin-4-yl)piperidin-4-amine] as the compound, how does the IC50 read?
Answer: 140 nM

Question: With NC1(c2nc3ccc(Cl)cc3[nH]2)CCN(c2ncnc3[nH]cnc23)CC1 [Example 21, 4-(6-chloro-1H-benzoimidazol-2-yl)-1-(9H-purin-6-yl)-piperidin-4-ylamine] as the compound, how does the IC50 read?
Answer: 250 nM

Question: With NC1(c2nc3c(-c4cccc(S(N)(=O)=O)c4)cccc3[nH]2)CCN(c2ncnc3[nH]ccc23)CC1 [Example 94, 3-[2-[4-amino-1-(7H-pyrrolo[3,2-e]pyrimidin-4-yl)piperidin-4-yl]-1H-benzimidazol-4-yl]benzenesulfonamide] as the compound, how does the IC50 read?
Answer: 47 nM

Question: NC1(c2nc3c(-c4cncnc4)cccc3[nH]2)CCN(c2ncnc3[nH]ccc23)CC1 [Example 91, 4-(4-pyrimidin-5-yl-1H-benzimidazol-2-yl)-1-(7H-pyrrolo[3,2-e]pyrimidin-4-yl)piperidin-4-amine] was tested. Which IC50 did it give?
Answer: 52 nM

Question: For NC1(c2nc3cc(Br)ccc3[nH]2)CCN(c2ncnc3[nH]ccc23)CC1 [Example 68B, 4-(5-bromo-1H-benzo[d]imidazol-2-yl)-1-(7H-pyrrolo[2,3-d]pyrimidin-4-yl)piperidin-4-amine], which IC50 is on record?
Answer: 460 nM

Question: NC1(c2nc3c(Br)cccc3[nH]2)CCN(c2ncnc3[nH]ccc23)CC1 [Example 85, 4-(7-Bromo-1H-benzo[d]imidazol-2-yl)-1-(7H-pyrrolo[2,3-d]pyrimidin-4-yl)piperidin-4-amine] was tested. Which IC50 did it give?
Answer: 350 nM

Question: For COc1ccccc1-c1ccc2[nH]c(C3(N)CCN(c4ncnc5[nH]ccc45)CC3)nc2c1 [Example 71, 4-[5-(2-methoxyphenyl)-1H-benzimidazol-2-yl]-1-(7H-pyrrolo[2,3-d]pyrimidin-4-yl)piperidin-4-amine], which IC50 is on record?
Answer: 2500 nM

Question: Which IC50 does the source give for CS(=O)(=O)c1ccc(-c2cccc3[nH]c(C4(N)CCN(c5ncnc6[nH]ccc56)CC4)nc23)cc1 [Example 83, 4-{4-[4-(methylsulfonyl)phenyl]-1H-benzimidazol-2-yl}-1-(7H-pyrrolo[2,3-d]pyrimidin-4-yl)piperidin-4-amine] here?
Answer: 47 nM
